Reference: patent US20260034111A1, “NOVEL HETEROCYCLES AS sPLA2-X INHIBITORS” (Cayman Chemical Company Incorporated, priority 2022, published 2026)
Structures can show the parent of a compound that is named as a salt. Where two headings read alike, the source gives them in different places.

Key:
Assay type in all cases: biochemical
sPLA2-X protein = biological target: T1, sPLA2-X protein (Homo sapiens, UniProt O15496); test: sPLA2-X enzyme inhibition assay (thio-PC substrate, DTNB detection, absorbance 410 nm); design: made in house; host or cells: E. coli; conditions: class symbols
T1 sequence (O15496 43-165): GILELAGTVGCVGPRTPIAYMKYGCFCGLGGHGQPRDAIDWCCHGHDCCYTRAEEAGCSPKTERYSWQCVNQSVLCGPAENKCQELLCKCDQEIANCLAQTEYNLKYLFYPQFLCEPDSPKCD
From the text: (§1) Screening Compounds for Inhibition of sPLA2-X, sPLA2-V, and sPLA2-IIA Enzyme Activity
(§2) These sPLA2 enzymes hydrolyze the sn-2 acyl chains of glycerophospholipids, resulting in the release of a free fatty acid and a lysophospholipid. In the case of the thio-PC substrate, this enzymatic hydrolysis results in a free sulfhydryl group remaining on the lysophospholipid. This free sulfhydryl reacts with DTNB to produce the chromogenic product 5-nitro-2-thiobenzoic acid (TNB) which can be quantitated by absorbance at 410 nm. The amount of TNB produced reflects the hydrolytic activity of the enzyme.
(§3) The recombinant human sPLA2 groups IIA, V, and X enzymes were expressed in E. coli and purified to >90% purity by standard biochemical methods.
(§4) Procedure of Enzyme Inhibition for sPLA2-X • 1. […] Dilute the test compounds in 100% DMSO by half-log steps in a 96-well dilution plate using columns 1-11 (one compound per row). Column 12 contains DMSO alone with no compound. • 3. Prepare a 3.5 mM thio-PC substrate solution by drying down 7.2 mg of stock thio-PC in ethanol under a gentle stream of N2 gas. When dry, add 4 mL assay buffer (25 mM Tris, pH7.4; 100 mM KCl; 10 mM CaCl2; 0.1% Triton X-100) and warm in a 37° C. water bath for 20 minutes with intermittent vortexing. • 4. Prepare an “enzyme containing” reaction mix with the following components: 20.4 mL assay buffer; 2 mL DTNB (20 mM in 800 mM Tris, pH8.0); and 11.8 mg recombinant human sPLA2-X enzyme (>95% pure) diluted to a total of 0.8 mL assay buffer. • 5. Prepare a “no enzyme” reaction mix with the following components: 477 μL assay buffer and 45 μL DTNB. • 6. Dispense 58 μL “no enzyme” reaction mix into each of 8 wells (columns 23 and 24, rows M-P). • 7. Dispense 58 μL “enzyme containing” reaction mix into all remaining wells on the plate. • 8. From the 96-well compound dilution plate, add 2 μL from each well for each compound to each of 4 wells with “enzyme containing” reaction mix. Columns 23 and 24 on the assay plate will contain only DMSO (vehicle control). […] After compound addition, mix the contents of each well to ensure that the DMSO is evenly distributed in the well. • 9. Cover the plate and incubate in the dark at room temperature for 15 minutes. • 10. Add 10 μL of thio-PC substrate to all wells. The final concentration of thio-PC in the reactions is 0.5 mM. • 11. Cover the plate and incubate in the dark at room temperature for 30 minutes. • 12. Measure the absorbance of all wells at 410 nm. • 13. Determine the mean absorbance of the “no enzyme” wells. Subtract this value from the absorbance values determined for all other wells (these are now background corrected data). • 14. […] Procedure of Enzyme Inhibition for sPLA2-V • 1. […] Dilute the test compounds in 100% DMSO by half-log steps in a 96-well dilution plate using columns 1-11. Column 12 contains DMSO alone with no compound. • 3. Prepare a 3.5 mM thio-PC substrate solution by drying down 7.2 mg of stock thio-PC in ethanol under a gentle stream of N2 gas. When dry, add 4 mL assay buffer (25 mM Tris, pH7.4; 100 mM KCl; 10 mM CaCl2; 0.1% Triton X-100) and warm in a 37° C. water bath for 20 minutes with intermittent vortexing. • 4. Prepare an “enzyme containing” reaction mix with the following components: 20.4 mL assay buffer; 2 mL DTNB (20 mM in 800 mM Tris, pH8.0); and 12 mg recombinant human sPLA2-V enzyme (>95% pure) diluted to a total of 0.8 mL assay buffer. • 5. Prepare a “no enzyme” reaction mix with the following components: 477 μL assay buffer and […]. • 6. Dispense 58 μL “no enzyme” reaction mix into each of 8 wells (columns 23 and 24, rows M-P). • 7. Dispense 58 μL “enzyme containing” reaction mix into all remaining wells on the plate. • 8. From the 96-well compound dilution plate, add 2 μL from each well for each compound to each of 4 wells with “enzyme containing” reaction mix. Columns 23 and 24 on the assay plate will contain only DMSO (vehicle control).

[1] = biological target: T2, recombinant human sPLA2-IIA enzyme (Homo sapiens, UniProt P14555); test: sPLA2-IIA enzyme inhibition assay (thio-PC substrate, DTNB detection, absorbance 410 nm); conditions: class symbols; read-out: sPLA2 Type IIa Inhibition (IC50; nM)
T2 construct: made in house; host or cells: E. coli
T2 sequence (P14555 21-144): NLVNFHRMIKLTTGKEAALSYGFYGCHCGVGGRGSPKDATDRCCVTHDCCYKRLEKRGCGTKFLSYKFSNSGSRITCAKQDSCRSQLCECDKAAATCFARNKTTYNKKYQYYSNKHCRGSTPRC
From the text: as §1, §2, §3, §4

[2] = biological target: T3, recombinant human sPLA2-V enzyme (Homo sapiens, UniProt P39877); test: sPLA2-V enzyme inhibition assay (thio-PC substrate, DTNB detection, absorbance 410 nm); conditions: class symbols; read-out: sPLA2 Type V Inhibition (IC50; nM)
T3 construct: made in house; host or cells: E. coli
T3 sequence (P39877 21-138): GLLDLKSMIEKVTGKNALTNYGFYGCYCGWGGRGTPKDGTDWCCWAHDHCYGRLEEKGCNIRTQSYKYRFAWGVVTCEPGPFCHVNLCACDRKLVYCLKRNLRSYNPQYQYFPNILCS
From the text: as §1, §2, §3, §4

[3] = read-out: sPLA2 Type X Inhibition (IC50; nM)
[4] = sPLA2 Type X Inhibition (IC50; nM)

SMILES	IC50 (sPLA2-X protein; [3]) [nM]	IC50 [1] [nM]	IC50 [2] [nM]	IC50 (sPLA2-X protein; [4]) [nM]
NC(=O)c1cc2ccc(OC(F)(F)F)cc2n1-c1cccc(C[C@H](N)C(=O)O)c1 [Compound 24, (S)-2-amino-3-(3-(2-carbamoyl-6-(trifluoromethoxy)-1H-indol-1-yl)phenyl)propanoic acid TFA salt]	> 200	> 1000	> 5000	–
NC(=O)c1oc2ccccc2c1-c1cccc(CCC(=O)O)c1 [Compound 25, 3-(3-(2-carbamoylbenzofuran-3-yl)phenyl)propanoic acid]	> 200	> 1000	> 5000	–
CC(C)(C)OC(=O)NCc1cccc(-n2c(C(N)=O)cc3ccc(OC(F)(F)F)cc32)n1 [Compound 26, tert-butyl ((6-(2-carbamoyl-6-(trifluoromethoxy)-1H-indol-1-yl)pyridin-2-yl)methyl)carbamate]	> 200	> 1000	> 5000	–
NCc1cccc(-n2c(C(N)=O)cc3ccc(OC(F)(F)F)cc32)n1 [Compound 27, 1-(6-(aminomethyl)pyridin-2-yl)-6-(trifluoromethoxy)-1H-indole-2-carboxamide TFA salt]	> 200	> 1000	> 5000	–
NC(=O)c1[se]c2ccc(OC(F)(F)F)cc2c1-c1cccc(CCC(=O)O)c1 [Compound 29, 3-(3-(2-carbamoyl-5-(trifluoromethoxy)benzo[b]selenophen-3-yl)phenyl)propanoic acid]	–	500 to 1000	1500 to 5000	50 to 200
NC(=O)c1cc2ccc(OC(F)(F)F)cc2n1-c1cccc(C2(CC(=O)O)CCC2)c1 [Compound 30, 2-(1-(3-(2-carbamoyl-6-(trifluoromethoxy)-1H-indol-1-yl)phenyl)cyclobutyl)acetic acid]	< 20	> 1000	1500 to 5000	–
NC(=O)c1cc2ccc(OC(F)(F)F)cc2n1-c1cccc(C2(CC(=O)O)CC2)c1 [Compound 31, 2-(1-(3-(2-carbamoyl-6-(trifluoromethoxy)-1H-indol-1-yl)phenyl)cyclopropyl)acetic acid]	< 20	> 1000	< 500	–
CC(=O)NCc1cccc(-n2c(C(N)=O)cc3ccc(OC(F)(F)F)cc32)n1 [Compound 32, 1-(6-(acetamidomethyl)pyridin-2-yl)-6-(trifluoromethoxy)-1H-indole-2-carboxamide]	> 200	> 1000	> 5000	–
CS(=O)(=O)NCc1cccc(-n2c(C(N)=O)cc3ccc(OC(F)(F)F)cc32)n1 [Compound 33]	> 200	> 1000	> 5000	–
NC(=O)c1[se]c2ccc(OC(F)(F)F)cc2c1-c1cccc(C2(CC(=O)O)CC2)c1 [Compound 34, 2-(1-(3-(2-carbamoyl-5-(trifluoromethoxy)benzo[b]selenophen-3-yl)phenyl)cyclopropyl)acetic acid]	–	> 1000	1500 to 5000	20 to 50
COC(=O)CC1(c2cccc(-c3c(C(N)=O)sc4ccc(OC(F)(F)F)cc34)c2)CC1 [Compound 35, methyl 2-(1-(3-(2-carbamoyl-5-(trifluoromethoxy)benzo[b]thiophen-3-yl)phenyl)cyclopropyl)acetate]	> 200	> 1000	> 5000	–
NC(=O)c1sc2ccc(OC(F)(F)F)cc2c1-c1cccc(C2(CC(=O)O)CC2)c1 [Compound 36, 2-(1-(3-(2-carbamoyl-5-(trifluoromethoxy)benzo[b]thiophen-3-yl)phenyl)cyclopropyl)acetic acid]	< 20	> 1000	500 to 1500	–
NC(=O)c1cc2ccc(OC(F)(F)F)cc2n1-c1cccc(CNC(=O)C(F)(F)F)n1 [Compound 37, 1-(6-((2,2,2-trifluoroacetamido)methyl)pyridin-2-yl)-6-(trifluoromethoxy)-1H-indole-2-carboxamide]	> 200	> 1000	> 5000	–
O=C(O)c1cc2ccc(OC(F)(F)F)cc2n1-c1cccc(C2(C(=O)O)CC2)n1 [Compound 39, 1-(6-(1-carboxycyclopropyl)pyridin-2-yl)-6-(trifluoromethoxy)-1H-indole-2-carboxylic acid]	> 200	> 1000	> 5000	–
NC(=O)c1cc2ccc(OC(F)(F)F)cc2n1-c1cccc([C@@H](N)CC(=O)O)c1 [Compound 40, (S)-3-amino-3-(3-(2-carbamoyl-6-(trifluoromethoxy)-1H-indol-1-yl)phenyl)propanoic acid]	> 200	> 1000	> 5000	–
N[C@@H](CC(=O)O)c1cccc(-n2c(C(=O)O)cc3ccc(OC(F)(F)F)cc32)c1 [Compound 41, (S)-1-(3-(1-amino-2-carboxyethyl)phenyl)-6-(trifluoromethoxy)-1H-indole-2-carboxylic acid]	> 200	> 1000	> 5000	–
NC(=O)c1cc2ccc(OC(F)(F)F)cc2n1-c1cccc([C@H](N)CC(=O)O)c1 [Compound 42, (R)-3-amino-3-(3-(2-carbamoyl-6-(trifluoromethoxy)-1H-indol-1-yl)phenyl)propanoic acid]	> 200	> 1000	> 5000	–
N[C@H](CC(=O)O)c1cccc(-n2c(C(=O)O)cc3ccc(OC(F)(F)F)cc32)c1 [Compound 43, (R)-1-(3-(1-amino-2-carboxyethyl)phenyl)-6-(trifluoromethoxy)-1H-indole-2-carboxylic acid]	> 200	> 1000	> 5000	–
NC(=O)c1cc2ccc(OC(F)(F)F)cc2n1-c1cccc(SCC(=O)O)n1 [Compound 44, 2-((6-(2-carbamoyl-6-(trifluoromethoxy)-1H-indol-1-yl)pyridin-2-yl)thio)acetic acid]	< 20	> 1000	> 5000	–
NC(=O)c1cc2ccc(OC(F)(F)F)cc2n1-c1cccc(S(=O)(=O)CC(=O)O)n1 [Compound 45, 2-((6-(2-carbamoyl-6-(trifluoromethoxy)-1H-indol-1-yl)pyridin-2-yl)sulfonyl)acetic acid]	20 to 50	> 1000	> 5000	–
NC(=O)c1cc2ccc(OC(F)(F)F)cc2n1-c1cccc(C(F)(F)CO)c1 [Compound 46, 1-(3-(1,1-difluoro-2-hydroxyethyl)phenyl)-6-(trifluoromethoxy)-1H-indole-2-carboxamide]	50 to 200	> 1000	> 5000	–
